This passage reports melting point and Ki results from patent publication US8232308B2, “Methods for treating a disease in which Rho kinase is involved” (UBE Industries, Ltd., priority 2003, dated 2012).

In general, melting point refers to the temperature, or range, at which the solid turns liquid. By Ki is commonly meant the equilibrium dissociation constant of an inhibitor or competing ligand from its target. The low end stands for tighter binding, the high end for weaker binding.

Counter-ions that a name gives are not always drawn.

T1 sequence (Q62868 11-550 limits assumed): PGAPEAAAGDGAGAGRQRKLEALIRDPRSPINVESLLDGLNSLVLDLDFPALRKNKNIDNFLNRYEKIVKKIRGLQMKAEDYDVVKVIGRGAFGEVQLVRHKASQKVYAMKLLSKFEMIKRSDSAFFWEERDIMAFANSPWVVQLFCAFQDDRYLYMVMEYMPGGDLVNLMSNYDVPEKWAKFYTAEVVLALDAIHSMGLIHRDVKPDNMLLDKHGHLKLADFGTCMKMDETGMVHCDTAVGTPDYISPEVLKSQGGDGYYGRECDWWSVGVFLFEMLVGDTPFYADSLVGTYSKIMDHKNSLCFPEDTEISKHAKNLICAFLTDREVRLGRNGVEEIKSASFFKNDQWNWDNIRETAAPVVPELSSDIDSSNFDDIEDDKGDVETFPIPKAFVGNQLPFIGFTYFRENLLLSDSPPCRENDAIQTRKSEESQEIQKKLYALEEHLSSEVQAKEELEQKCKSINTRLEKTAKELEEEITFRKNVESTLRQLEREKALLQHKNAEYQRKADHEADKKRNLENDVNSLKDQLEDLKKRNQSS

System in the first data set: not given
Assay: not given
Conditions: not given
With `CC(C)(N)c1ccc(-c2ccc3[nH]ncc3c2OCC2CC2)nc1.Cl.Cl.Cl` [Compound 5-73, 5-[5-(1-Amino-1-methylethyl)pyridin-2-yl]-4-cyclo-propylmethyloxy-1H-indazole trihydrochloride], the melting point was 270 to 272 °C (dec.).
For the molecule `CC(=O)n1ncc2ccc(-c3ccc(C(C)(C)N)cc3)cc21` (as salt: hydrochloride) [Compound 5-38, 1-Acetyl-6-[4-(1-amino-1-methylethyl)phenyl]-1H-indazole dihydrochloride], the melting point fell in the range of 225 to 230 °C.
On the same count and under the same terms, next, `CC(=O)n1ncc2cc(-c3ccc(C(C)(C)N)cc3)ccc21` (as salt: hydrochloride) [Compound 5-2, 1-Acetyl-5-[4-(1-amino-1-methylethyl)phenyl]-1H-indazole dihydrochloride]: 247 to 250 °C.
`CCc1c(-c2ccc(C(C)(C)N)cn2)ccc2[nH]ncc12` (as salt: hydrochloride) [Compound 5-28, 5-[5-(1-Amino-1-methylethyl)pyridin-2-yl]-4-ethyl-1H-indazole trihydrochloride]: the melting point is 247 to 255 °C (dec.).
In the case of `CC(C)(N)c1ccc(-c2ccc3[nH]nc(CO)c3c2)cc1` (as salt: hydrochloride) [Compound 5-14, 5-[4-(1-Amino-1-methylethyl)phenyl]-3-hydroxymethyl-1H-indazole dihydrochloride], the melting point was 238 to 242 °C (dec.).

The next data set has as its target T1, activated ROCK II (Rattus norvegicus, UniProt Q62868).
T1 construct: purchased Upstate Biotechnology 14-338
In words: Test for Evaluation of Inhibiting Activity to Rho Kinase. It is filed as biochemical. The conditions noted are these: S6 Kinase Substrate Peptide, [γ-32P]ATP, 30° C. for 15 minutes, Ki=IC50/(1+S/Km).
Take `CC(C)(N)c1ccc(-c2ccc3[nH]ncc3c2OCC2CC2)nc1.Cl.Cl.Cl` [Compound 5-73, 5-[5-(1-Amino-1-methylethyl)pyridin-2-yl]-4-cyclo-propylmethyloxy-1H-indazole trihydrochloride]: the inhibition constant (Ki) came out at 146 nM.
